{
  "source": "patent US20230053473A1",
  "about": "“ENHANCING EXPRESSION OF LINE-1 ENCODED ORF2P FOR CANCER THERAPEUTICS” (The Johns Hopkins University, priority 2019, published 2023)",
  "key": {"LINE-1(+) RPE cells": {"system": "LINE-1(+) RPE cells", "assay": "Clonogenic growth assay, LINE-1(+) cells", "assay_type": "cell-based", "method": "(§1) Viability was determined by clonogenic growth or CellTiter-Glo assay (Promega, Madison, Wis.). WT RPE were assessed by clonogenic growth by transfecting 1e5 cells with 2 μg eGFP (pDA083) or 3 μg LINE-1 (pDA077) plasmid to achieve equimolar ratios. Cells were split to 10 cm growth dishes and selected with G418 24 hours later. In Tet-On assays, 500 cells were plated and doxycycline was added to activate transgene expression. For MMC sensitivity experiments, cells were treated with 100 pM, 1 nM, 10 nM, and 100 nM for 24 hours on day 2 after plating. In VE-821 sensitivity, cells were treated with 1 μM drug or DMSO vehicle throughout the duration of the experiment. For assays in CRISPR knockout cells, knockout cell pools were generated by infecting TP53^KD Tet-On RPE cells with lentivirus encoding either non-targeting control or a gene targeting guide and selecting with puromycin for 1 week. For all assays, after 10-14 days of L1 or control expression, colonies were washed with PBS and fixed (6% gluteraldehyde, 0.5% crystal violet) for 10 minutes. Plates were rinsed in water and air dried, then imaged on a flatbed scanner. Colonies with >50 cells were counted."}, "luciferase(+) cells": {"system": "luciferase(+) cells", "assay": "Clonogenic growth assay, luciferase(+) control cells", "assay_type": "cell-based", "method": "as §1"}, "HeLa cells": {"system": "HeLa cells", "assay": "FANCD2 nuclear foci quantification in EdU-labeled HeLa cells", "assay_type": "cell-based", "details": "S phase (EdU+) cells; p=1.7×10^−8", "method": "(§2) We used either Tet-On TP53^KD cells expressing Luciferase or LINE-1 or HeLa cells transfected with doxycycline-inducible LINE-1 plasmids (pDA007, pDA025, pDA027, pDA033, pDA019) and stably-selected with puromycin for 1-2 weeks. Positive controls were treated with either 6 mM hydroxyurea for 4 hours or 200 ng/mL doxorubicin for 2 hours. 100,000 cells were plated on cover slips and treated with 1000 ng/ml doxycycline for 72 hours. EdU was added for 2 hours and cells were pre-treated with 0.5% Triton X-100 for 5 min, fixed with 3.7% paraformaldehyde for 10 minutes, then permeabilized with 0.5% NP-40 for 10 minutes. EdU Click-iT reaction (ThermoFisher) was performed following manufacturer's instructions. Slides were blocked (1% BSA/PBS-Glycine, 30 minutes) and incubated with polyclonal rabbit FANCD2 (1:1000, Novus Biologicals), rabbit 53BP1 (1:500, Novus Biologicals), or mouse γH2A.X (1:1000, Millipore) for 1 hour at room temperature and then anti-rabbit Alexa Fluor 488 for FANCD2 (1:200, ThermoFisher) and anti-rabbit Alexa Fluor 488 (1:2000, ThermoFisher) and anti-mouse Alexa Fluor 555 (1:2000, ThermoFisher) for 53BP1 and γH2A.X, respectively. Slides were imaged at low magnification with the same equipment as described above with key methodological differences. […] Foci were quantified using a previously published method in MATLAB. […]"}, "[1]": {"system": "Tet-On TP53KD cells expressing LINE-1", "assay": "qRT-PCR of LINE-1-induced IFN response with nucleoside reverse transcriptase inhibitors", "assay_type": "cell-based", "details": "5 μM for 72 hours", "method": "250,000 Tet-On TP53^KD cells expressing Luciferase or LINE-1 were plated in T25 flasks with 1 ng/mL doxycycline added and treated with 5 μM zalcitabine (ddC) or 5 μM didanosine (ddI) for 72 hours. Cells were lysed and RNA were extracted using Quick-RNA MicroPrep kit (Zymo Research).\ncDNA was generated using the iScript kit (Biorad, Hercules, Calif.) following RNA extraction using the Quick-RNA Microprep kit (Zymo). Primers were designed using Primer3 and tested against cDNA to ensure single bands were generated in the PCR. Real-time PCR was performed for 40 cycles (98C×15 seconds, 60C×30 seconds) using SSOAdvanced 2X Master mix (Biorad) on the MyIQ cycler (Biorad). Fold-change expression was determined by the 2^−ΔΔCt method."}, "PKR": {"biological_target": "PKR (Homo sapiens, UniProt P19525)", "sequence (P19525 whole entry)": "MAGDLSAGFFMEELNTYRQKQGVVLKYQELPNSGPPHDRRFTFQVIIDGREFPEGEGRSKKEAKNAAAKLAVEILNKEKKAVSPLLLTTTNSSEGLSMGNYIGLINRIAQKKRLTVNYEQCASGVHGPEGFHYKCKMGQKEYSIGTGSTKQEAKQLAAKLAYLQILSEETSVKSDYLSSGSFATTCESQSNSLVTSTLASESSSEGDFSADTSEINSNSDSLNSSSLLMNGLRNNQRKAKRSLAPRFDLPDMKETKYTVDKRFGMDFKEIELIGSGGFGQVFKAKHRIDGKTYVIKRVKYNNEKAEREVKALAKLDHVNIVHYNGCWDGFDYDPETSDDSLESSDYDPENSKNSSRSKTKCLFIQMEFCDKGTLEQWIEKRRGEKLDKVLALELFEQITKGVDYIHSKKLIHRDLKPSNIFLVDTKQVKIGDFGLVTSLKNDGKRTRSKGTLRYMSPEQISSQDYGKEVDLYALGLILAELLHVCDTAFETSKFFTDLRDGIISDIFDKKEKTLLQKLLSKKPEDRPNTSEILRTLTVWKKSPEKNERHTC", "details": "in vitro, cited from earlier work"}, "RPA2": {"system": "RPA2", "assay": "Western blot of chromatin-bound RPA2", "assay_type": "cell-based", "details": "RPE, chromatin-bound protein fractions; 1 μM", "method": "FIGS. 6A-6G. LINE-1 activity induces replication stress. 6A) Median count of sgRNAs targeting replication stress signaling genes ATRIP and the 9-1-1 complex (HUS1 and RAD1) during the screen. Error bars indicate 95% confidence intervals. 6B) Clonogenic assay of LINE-1(+) RPE cells (induced with 1 μg/ml doxycycline) with CRISPR-knockout of ATRIP compared to non-targeting-control (NTC). Error bars indicate SEM, n=3 independent experiments. P value is calculated with an unpaired two-sided T test. 6C) Clonogenic assay of LINE-1(+) RPE cells (induced with 1 μg/ml doxycycline) with drug inhibition of ATR kinase by 1 μM VE-821 compared to vehicle (DMSO). Error bars indicate SEM, n=3 independent experiments. P value is calculated with an unpaired two-sided T test. 6D) Western blot of RPA2 occupancy on chromatin induced by LINE-1 compared to luciferase control after 72 hours of expression in RPE. Chromatin-bound protein lysates were used. […] Relative signal intensity for n=2 independent experiments ±SEM is quantified. […] Statistical significance is assessed by ANOVA (p=0.0007). […]\nCells were lysed in RIPA buffer with protease/phosphatase inhibitor (cat#5872, Cell Signaling Technology, Danvers, Mass.) or Laemmli Sample Buffer (cat#1610747, Biorad, Hercules, Calif.) by sonication. […] Quantifications were carried out using Image Studio v4.0. […]"}, "FANCD2": {"system": "FANCD2", "assay": "Western blot of FANCD2 monoubiquitination", "assay_type": "cell-based", "details": "NTC-treated cells; 24-hour treatment with 1 μg/ml", "excerpt": "FIGS. 5A-5H. The Fanconi Anemia (FA) pathway is essential in p53-deficient cells. 5A) Network plot of 75 DNA repair genes identified in the screen. Edges indicate known physical interactions. This network is enriched for Fanconi anemia genes (blue nodes). 5B) Model of FA complexes responding to a DNA lesion (vertical line) encountered by a replication fork (blue line=genomic DNA; green line=nascent DNA). Genes are color coded based on the performance of their knockouts in the screen. 5C) Western blot of FANCD2 response to 24-hour treatment with 1 μg/ml mitomycin C (MMC). Cells are treated with FA member sgRNAs or non-targeting-control (NTC). FANCD2 monoubiquitination is assessed as the ratio of FANCD2-L (long) to FANCD2-S (short) band intensities (relative L:S ratio). The ratio is graphed relative to NTC, MMC-treated cells. nd=not determined. Uncropped blot is shown in the Source Data. 5D) Clonogenic growth assay of LINE-1(+) RPE cells with sgRNAs targeting the same genes as in (C). n=3 independent experiments. P value calculated with a one-sided T test. […] Quantification to the right of n=2 independent experiments ±SEM. […] Quantification below of n=2 independent experiments ±SEM. Effect of wildtype LINE-1 is statistically significant as assessed by ANOVA (p=0.0143). […] Right, quantification of FANCD2 foci in EdU+HeLa cells. […] 5H) Left, γH2A.X and 53BP1 focus quantification in EdU+TP53^KD cells. […]"}, "ORF2p": {"system": "ORF2p", "assay": "Western blot of ORF2p accumulation in RPE cells with doxycycline-controlled LINE-1 expression construct", "assay_type": "cell-based, human", "excerpt": "(§3) FIGS. 13A and 13B. […] (Day 1 and 3 show little effect. The effect is sustained at day 10. Higher doses of the drug are toxic). The cells used are RPE cells that have a doxycycline (Dox) controlled LINE-1 expression construct. (13A.) Western blot showing ORF2p, ORF1p, and tubulin levels on day 5. Addition of Dox induces LINE-1 expression. Addition of PKRi enhances relative ORF2p expression levels. (13B.) Quantification of ORF2p expression (relative to tubulin) by Western blot as a function PKRi inhibitor dose on different days of the experiment.\nCells were lysed in RIPA buffer with protease/phosphatase inhibitor (cat#5872, Cell Signaling Technology, Danvers, Mass.) or Laemmli Sample Buffer (cat#1610747, Biorad, Hercules, Calif.) by sonication. PAGE was carried out with manufacturer-recommended buffers on 4-20% or 7.5% Mini TGX Gels (Biorad), NuPAGE 4-12% BisTris gels, or NuPAGE 3-8% Tris-Acetate gels (Thermo). Semi-dry transfers were carried out for Biorad gels or NuPAGE BisTris gels at 2.5 A for 5-15 minutes using the Trans-Blot-Turbo (Biorad). Wet transfers were carried out for Tris-Acetate gels at 30V overnight. All blocking was performed with Odyssey Blocking Buffer (Licor). Primary antibodies were incubated with membranes overnight at 4C, then infrared-conjugated secondaries (Licor) were added 1:10,000 and imaged on a Licor Odyssey Scanner. Quantifications were carried out using Image Studio v4.0. Blots were stripped with Reblot Plus Strong Solution (Millipore Sigma).\n(§4) (Day 1 and 3 show little effect. The effect is sustained at day 10. Higher doses of the drug are toxic.) The finding is significant as proof-of-principle that specific cellular pathways are involved in uncoupling the expression of LINE-1 encoded proteins. As such increasing ORF2p intracellularly in tumors can cause tumor cell death."}, "RPE cells": {"system": "RPE cells", "assay_type": "cell-based", "excerpt": "as §3, §4"}, "TP53KD cells": {"system": "TP53KD cells", "assay": "γH2A.X and 53BP1 nuclear foci quantification in TP53KD cells", "assay_type": "cell-based", "details": "data not shown", "method": "as §2"}},
  "data": [
    {"molecule": "CS(=O)(=O)c1ccc(-c2cnc(N)c(C(=O)Nc3ccccc3)n2)cc1", "note": "[VE-821]", "values": [
      {"measurement": "sensitization of cells to LINE-1 (ATR inhibition)", "setting": "LINE-1(+) RPE cells; 1 μM vs DMSO vehicle", "value": "sensitized cells to LINE-1"},
      {"measurement": "effect on viability in luciferase(+) cells", "setting": "luciferase(+) cells; same dose as in LINE-1(+) cells, data not shown", "value": "no effect on viability"}
    ]},
    {"molecule": "NC(=O)NO", "note": "[hydroxyurea]", "values": [
      {"measurement": "number of FANCD2 foci", "setting": "HeLa cells", "value": "increased the number of FANCD2 foci"}
    ]},
    {"molecule": "O=c1[nH]cnc2c1ncn2[C@H]1CC[C@@H](CO)O1", "note": "[didanosine]", "values": [
      {"measurement": "effect on LINE-1-induced IFN response", "setting": "[1]", "value": "attenuated the IFN response"}
    ]},
    {"molecule": "Nc1ncc2[nH]cnc2n1", "note": "[2-AP, 2-aminopurine]", "values": [
      {"measurement": "potency relative to C16", "setting": "PKR; competes for ATP at the ATP binding site of PKR", "value": "less potent than C16"}
    ]},
    {"molecule": "CO[C@@]12[C@H](COC(N)=O)C3=C(C(=O)C(C)=C(N)C3=O)N1C[C@@H]1N[C@@H]12", "note": "[MMC, mitomycin C]", "values": [
      {"measurement": "chromatin-bound RPA2", "setting": "RPA2", "value": "induced chromatin-bound RPA2"},
      {"measurement": "sensitivity of LINE-1(+) cells compared to luciferase-expressing controls", "setting": "LINE-1(+) RPE cells; dose-response clonogenic assay, 24 hours treatment", "value": 1.9, "unit": "fold"},
      {"measurement": "FANCD2 monoubiquitination (FANCD2-Ub)", "setting": "FANCD2", "value": "induced FANCD2-Ub"}
    ]},
    {"molecule": "O=C1Nc2ccc3ncsc3c2C1=Cc1cnc[nH]1", "note": "[PKRi, 6,8-dihydro-8-(1H-imidazol-5-ylmethylene)-7H-pyrrolo[2,3-g]benzothiazol-7-one]", "values": [
      {"measurement": "accumulation of ORF2p (relative to ORF1p and tubulin)", "setting": "ORF2p; 0.1 uM, by day 6 of treatment", "value": "increases the accumulation of ORF2p"},
      {"measurement": "effect on ORF2p accumulation", "setting": "ORF2p; Day 1 and 3", "value": "little effect"},
      {"measurement": "accumulation of ORF2p (relative to ORF1p and tubulin)", "setting": "ORF2p; by day 5 of treatment, Dox-induced RPE cells", "value": "dose-dependent increases the accumulation of ORF2p"},
      {"measurement": "effect on ORF2p accumulation", "setting": "ORF2p; day 10", "value": "sustained"},
      {"measurement": "IC50", "setting": "PKR", "value": "~200", "unit": "nM"},
      {"measurement": "toxicity", "setting": "RPE cells", "value": "toxic"}
    ]},
    {"molecule": "pladienolide B [PLA-B]", "values": [
      {"measurement": "increased sensitivity of LINE-1(+) vs luciferase(+) cells", "setting": "LINE-1(+) RPE cells; P=0.044", "value": 4.1, "unit": "fold"},
      {"measurement": "fewer colonies of LINE-1(+) cells", "setting": "LINE-1(+) RPE cells; same PLA-B dose as for luciferase(+) cells", "value": 27.8, "unit": "%"},
      {"measurement": "reduction of luciferase(+) clonogenic growth", "setting": "luciferase(+) cells; same PLA-B dose as for LINE-1(+) cells", "value": 6.8, "unit": "%"}
    ]},
    {"molecule": "Nc1ccn([C@H]2CC[C@@H](CO)O2)c(=O)n1", "note": "[zalcitabine]", "values": [
      {"measurement": "effect on LINE-1-induced IFN response", "setting": "[1]", "value": "attenuated the IFN response"}
    ]},
    {"molecule": "COc1cccc2c1C(=O)c1c(O)c3c(c(O)c1C2=O)C[C@@](O)(C(=O)CO)C[C@@H]3O[C@H]1C[C@H](N)[C@H](O)[C@H](C)O1", "note": "[doxorubicin]", "values": [
      {"measurement": "DNA damage foci (γH2A.X and 53BP1) over the cell cycle", "setting": "TP53KD cells", "value": "continue to accumulate"}
    ]}
  ]
}
